Data taken from ChEMBL document CHEMBL6109069 (J Med Chem, 2025).
Active and inactive are the calls of the source. The rule behind the calls is not given here. Starred links: 1 amine or outer side, 2 acyl side, 3 side chain; linkers in the order of their positions; H or OH if unused. Non-standard residues stand in square brackets, D forms with d. Residues, ends and D or L forms follow the SMILES beside them. *: point of attachment. X1 = CCC(=O)C[C@@H](O)C[C@@H](C)C[C@H](N[*:1])C(=O)[*:2]; Hexenoyl(2E,4S-Me) = CC[C@H](C)/C=C/C(=O)*; Leu(3R-OH) = CC(C)[C@@H](O)[C@H](N)C(=O)O; NH((S)CH(Me)CH2NMe2) = C[C@@H](CN(C)C)N*; Pro(4S-Me) = C[C@@H]1CN[C@H](C(=O)O)C1; NH(1-CH2NMe2-cBu) = CN(C)CC1(N*)CCC1; Benzoyl(4-F) = O=C(c1ccc(F)cc1)*; hCha = N[C@@H](CCC1CCCCC1)C(=O)O; NHCH2CH2NMe2 = CN(C)CCN*; Aib = CC(C)(N)C(=O)O; X2 = CN(CCN*)CC(F)F; βAla = NCCC(=O)O

Key:
[1] = tested on: Trypanosoma brucei rhodesiense; experiment: Antitrypanosomal activity against Trypanosoma brucei rhodesiense STIB 900; assay type: functional, organism-based
Lipid bilayer [2] = experiment: Disruption of membrane integrity in bacterial cell membrane mimic POPC/POPG LUVs assessed as calcein leakage at 500 nM measured for 1 mins by fluorescence spectroscopy analysis
[3] = Inhibition of Bovine heart ATP synthase assessed as inhibition constant by Michaelis-Menten plot analysis; set-up: species or system Bos taurus; conditions: read-out: Ki
Mitochondrial membrane [4] = experiment: Induction of mitochondrial membrane depolarization in bovine heart assessed as change in fluorescence intensity at 100 to 200 nM by safranin O staining based eclipse fluorescence spectrophotometric analysis; assay type: cell membranes; conditions: Bos taurus, dose 100-200 nM
Mitochondrial membrane [5] = experiment: Induction of mitochondrial membrane depolarization in bovine heart assessed as change in fluorescence intensity at 25 nM by safranin O staining based eclipse fluorescence spectrophotometric analysis; assay type: cell membranes; conditions: Bos taurus
[6] = Inhibition of Escherichia coli ATP synthase assessed as inhibition constant
Mitochondrial membrane [7] = experiment: Induction of mitochondrial membrane potential in bovine heart assessed as change in fluorescence intensity at 200 nM by safranin O staining based eclipse fluorescence spectrophotometric analysis; assay type: cell membranes; conditions: Bos taurus
Lipid bilayer [8] = experiment: Disruption of membrane integrity in bacterial cell membrane mimic POPC/POPG LUVs assessed as calcein leakage at 1.3 uM measured for 1 mins by fluorescence spectroscopy analysis
Trypanosoma brucei [9] = experiment: Induction of mitochondrial uncoupling activity in Trypanosoma brucei assessed as increase in oxygen consumption rate by measuring fluorescence intensity at 25 nM measured up to 80 mins by O2k-type oxygraph analysis; assay type: functional, organism-based
Fibroblast [10] = experiment: Induction of mitochondrial uncoupling activity in human Fibroblast cells assessed as increase in oxygen consumption rate by measuring fluorescence intensity at 25 nM measured up to 80 mins by O2k-type oxygraph analysis; assay type: functional, cell-based
Plasmodium falciparum = experiment: Antiplasmodial activity against Plasmodium falciparum NF54 incubated for 48 hrs; assay type: functional, organism-based; conditions: NF54, 48 h
[11] = Reduction in respiration rate in human Fibroblast cells assessed as decrease in coupling efficiency at 50 nM incubated up to 80 mins; assay type: functional; set-up: scale not given: the % may be the effect or the level left; conditions: 1.333 h
Leishmania donovani = experiment: Antitrypanosomal activity against Leishmania donovani MHOM/ET/67/L82 incubated for 72 hrs by resazurin staining based analysis; assay type: functional, organism-based; conditions: MHOM/ET/67/L82, 72 h
Lipid bilayer [12] = experiment: Disruption of membrane integrity in bacterial cell membrane mimic POPC/POPG LUVs assessed as HTPS leakage at 5 uM measured after 1 mins
Trypanosoma cruzi = experiment: Antitrypanosomal activity against Trypanosoma cruzi Tulahuen C4 incubated for 4 days; assay type: functional, organism-based; conditions: Tulahuen C4, 96 h
[13] = Cytotoxicity against rat L6 cells assessed as cell viability; assay type: toxicity, cell-based
Mitochondrial membrane [14] = experiment: Induction of mitochondrial membrane hyperpolarization in bovine heart assessed as change in fluorescence intensity at 25 nM by safranin O staining based eclipse fluorescence spectrophotometric analysis; assay type: cell membranes; conditions: Bos taurus
[15] = Inhibition of yeast ATP synthase assessed as inhibition constant by Michaelis-Menten plot analysis; set-up: species or system Saccharomyces cerevisiae
[16] = Toxicity in ip dosed mouse assessed as lethal dose; assay type: organism-based; conditions: in vivo
[17] = Cytotoxicity against rat L6 cells; assay type: toxicity, cell-based
[18] = Toxicity in po dosed mouse assessed as lethal dose; assay type: organism-based; conditions: in vivo
Lipid bilayer [19] = experiment: Disruption of membrane integrity in bacterial cell membrane mimic POPC/POPG LUVs assessed as HTPS leakage at 1 uM measured for 1 mins by fluorescence spectroscopy analysis
Lipid bilayer [20] = experiment: Disruption of membrane integrity in bacterial cell membrane mimic POPC/POPG LUVs assessed as HTPS leakage at 5 uM measured for 1 mins by fluorescence spectroscopy analysis
Fibroblast [21] = experiment: Inhibition of ATP synthase in human Fibroblast cells assessed as decrease in oxygen consumption at 50 nM by OROBOROS instrument based analysis; assay type: cell-based
Fibroblast [22] = experiment: Induction of mitochondrial uncoupling activity in human Fibroblast cells assessed as increase in oxygen consumption rate by measuring fluorescence intensity by O2k-type oxygraph analysis; assay type: functional, cell-based
Trypanosoma brucei [23] = experiment: Induction of mitochondrial uncoupling activity in Trypanosoma brucei assessed as increase in oxygen consumption rate by measuring fluorescence intensity by O2k-type oxygraph analysis; assay type: functional, organism-based
Fibroblast [24] = experiment: Reduction in respiration rate in human Fibroblast cells assessed as decrease in coupling efficiency at > 200 nM incubated up to 60 mins; assay type: functional, cell-based
[25] = tested on: Trypanosoma brucei rhodesiense; experiment: Antitrypanosomal activity against Trypanosoma brucei rhodesiense STIB 900 incubated for 72 hrs by resazurin staining based analysis; assay type: functional, organism-based; conditions: STIB 900, 72 h
[26] = Cytotoxicity against rat L6 cells assessed as cell viability incubated for 72 hrs by CCK-8 assay
Bos taurus = organism: Bos taurus; experiment: Potency index, ratio of Leucinostatin A Ki to test compound Ki for inhibition of Bovine heart ATP synthase

SMILES | IC50 [1] | Activity (Lipid bilayer [2]) | Ki [3] | Ki [6] | Activity (Lipid bilayer [8]) | IC50 (Plasmodium falciparum) | Activity [11] | IC50 (Leishmania donovani) | IC50 (Trypanosoma cruzi) | further results
CC(C)C[C@H](NC(=O)[C@H](CCC1CCCCC1)NC(=O)[C@@H]1CCCN1C(=O)c1ccc(F)cc1)C(=O)NC(C)(C)C(=O)N[C@@H](CC(C)C)C(=O)N[C@@H](CC(C)C)C(=O)NC(C)(C)C(=O)NC(C)(C)C(=O)NCCC(=O)NCCN(C)C ({Benzoyl(4-F)}-P[hCha]L[Aib]LL[Aib][Aib][βAla]-NHCH2CH2NMe2) | 3.9 nM | Active | 455 nM | – | – | – | – | – | – | –
CC(C)C[C@H](NC(=O)[C@H](CCC1CCCCC1)NC(=O)[C@@H]1CCCN1C(=O)c1ccc(F)cc1)C(=O)NC(C)(C)C(=O)N[C@@H](CC(C)C)C(=O)N[C@@H](CC(C)C)C(=O)NC(C)(C)C(=O)NC(C)(C)C(=O)NCCC(=O)NCCN(C)CC(F)F ({Benzoyl(4-F)}-P[hCha]L[Aib]LL[Aib][Aib][βAla]-X2) | 393 nM | Active | 499 nM | – | – | – | – | – | – | –
CC(C)C[C@H](NC(=O)[C@H](CCC1CCCCC1)NC(=O)[C@@H]1CCCN1C(=O)c1ccc(F)cc1)C(=O)NC(C)(C)C(=O)N[C@@H](CC(C)C)C(=O)N[C@@H](CC(C)C)C(=O)NC(C)(C)C(=O)NC(C)(C)C(=O)NCCC(=O)NC1(CN(C)C)CCC1 ({Benzoyl(4-F)}-P[hCha]L[Aib]LL[Aib][Aib][βAla]-{NH(1-CH2NMe2-cBu)}) | 0.39 nM | – | 265 nM | ~260 nM | Active | 5.4 nM | ~3% | 4.9 nM | 114 nM | Activity (Mitochondrial membrane [4]): Active; Activity (Mitochondrial membrane [5]): Active; Activity (Mitochondrial membrane [7]): Active; Activity (Trypanosoma brucei [9]): inactive; Activity (Fibroblast [10]): inactive; Activity (Lipid bilayer [12]): Active
CCC(=O)C[C@@H](O)C[C@@H](C)C[C@H](NC(=O)[C@@H]1C[C@H](C)CN1C(=O)/C=C/[C@@H](C)CC)C(=O)N[C@H](C(=O)NC(C)(C)C(=O)N[C@@H](CC(C)C)C(=O)N[C@@H](CC(C)C)C(=O)NC(C)(C)C(=O)NC(C)(C)C(=O)NCCC(=O)N[C@@H](C)CN(C)C)[C@H](O)C(C)C ({Hexenoyl(2E,4S-Me)}-[Pro(4S-Me)][X1][Leu(3R-OH)][Aib]LL[Aib][Aib][βAla]-{NH((S)CH(Me)CH2NMe2)}) | 0.25 nM | – | 80 nM | > 1000 nM | Active | 0.61 nM | ~60% | 1.1 nM | 23 nM | IC50 [13]: 259 nM; Activity (Mitochondrial membrane [14]): Active; Ki [15]: ~30 nM; LD50 [16]: 1.8 mg/kg; IC50 [17]: 259 nM; LD50 [18]: 5.4 mg/kg; Activity (Lipid bilayer [19]): inactive; Activity (Lipid bilayer [20]): inactive; inhibition (Fibroblast [21]): Active; Activity (Fibroblast [22]): Active; Activity (Trypanosoma brucei [23]): Active
CC[C@H](C)/C=C/C(=O)N1C[C@@H](C)C[C@H]1C(=O)N[C@@H](CCC1CCCCC1)C(=O)N[C@H](C(=O)NC(C)(C)C(=O)N[C@@H](CC(C)C)C(=O)N[C@@H](CC(C)C)C(=O)NC(C)(C)C(=O)NC(C)(C)C(=O)NCCC(=O)N[C@@H](C)CN(C)C)[C@H](O)C(C)C ({Hexenoyl(2E,4S-Me)}-[Pro(4S-Me)][hCha][Leu(3R-OH)][Aib]LL[Aib][Aib][βAla]-{NH((S)CH(Me)CH2NMe2)}) | – | – | 22 nM | – | – | 0.47 nM | – | 1.2 nM | 275 nM | Activity (Fibroblast [24]): Active; IC50 [25]: 0.34 nM; IC50 at 72 h [26]: 232 nM; Ratio Ki (Bos taurus): 4
